34 compounds from US20230219927A1, “AKT3 MODULATORS” (Georgiamune LLC, priority 2020, published 2023) can be followed below.

The structures appear in SMILES notation. pIC50: −log10 of the molar value.

Assay [1] addresses T1, Akt3 (Homo sapiens, UniProt Q9Y243).
T1 construct: endogenous in cells; host or cells: primary human CD4+/CD45RA+/CD25- naive T cells
The assay is described as follows: Akt3 inhibition activity of selected compounds. Format: cell-based. The note with it: Table 1. The protocol: (§1) Human CD4+/CD45RA+/CD25-naïve T cells were plated under induction conditions (IL-2/anti-CD3/anti-CD28+TGFβ) in the absence or presence of compounds for 72 hours. To determine the compounds' specificity for each phospho-AKT isoform, phospho-AKT cellular HTRF kits (Cisbio catalogue numbers 63ADK078PEG (pAKT1), 63ADK080PEG (p-AKT2), and 63ADK082PEG (pAKT3)) were used according to manufacturer specifications. Briefly, after removal of the supernatant, cells were lysed, and total protein concentration measured and normalized for all samples. The cell lysates were transferred into 384-well plates and Eu Cryptate antibody+d2 antibody mixture was added. This process was the same for each isoform but utilized the corresponding isoform antibodies from each respective kit. Positive and negative controls (supplied with the kit) were incorporated into each experiment. The plates were incubated overnight. Data acquisition was performed on the Varioskan Lux reader utilizing the settings for the TRF fluorescence protocol. Data was presented as percent change over DMSO-treated controls. Each test condition was run in duplicate, and the assay was performed at least twice.

The target of assay [2] is T1, Akt3. Description: Akt3 activation activity of selected compounds. Conditions: Table 2. Format: cell-based. The protocol: as §1

T1 sequence (Q9Y243 whole entry): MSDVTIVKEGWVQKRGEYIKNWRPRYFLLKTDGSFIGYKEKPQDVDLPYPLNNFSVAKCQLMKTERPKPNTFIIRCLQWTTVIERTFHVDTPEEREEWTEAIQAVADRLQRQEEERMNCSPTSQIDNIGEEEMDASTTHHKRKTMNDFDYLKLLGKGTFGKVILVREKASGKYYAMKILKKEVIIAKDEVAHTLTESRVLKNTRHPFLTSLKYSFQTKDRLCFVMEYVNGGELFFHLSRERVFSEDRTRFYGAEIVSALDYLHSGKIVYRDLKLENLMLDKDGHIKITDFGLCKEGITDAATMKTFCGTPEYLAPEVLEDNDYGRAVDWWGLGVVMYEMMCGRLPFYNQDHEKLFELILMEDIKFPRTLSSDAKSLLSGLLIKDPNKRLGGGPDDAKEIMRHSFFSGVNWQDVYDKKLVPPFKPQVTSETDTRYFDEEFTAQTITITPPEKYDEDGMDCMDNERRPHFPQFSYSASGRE

For `Cc1cc(Nc2ccc3c(c2)CN(c2cccc(Nc4ccncc4)c2)C3=O)ccn1` [Compound 114, 5-(2-methylpyridin-4-ylamino)-2-(3-(pyridin-4-ylamino)phenyl)isoindolin-1-one], the negative-log IC50 (pIC50) (commonly the IC50 on a negative log10 scale, so that one unit is a factor of ten) against Akt3 [1] was above 6.00.

Take `Nc1cc(Nc2cccc(C(=O)Nc3cc(Nc4ccncc4)ccn3)c2)ccn1` [Compound 128, 3-(2-aminopyridin-4-ylamino)-N-(4-(pyridin-4-ylamino)pyridin-2-yl)benzamide]: the pIC50 on Akt3 [1] was above 5.30.

In turn, `C#Cc1ccc2nccc(Nc3cccc(C(=O)Nc4cccc(Nc5ccncc5)c4)c3)c2c1` [Compound 4, 3-((6-ethynylquinolin-4-yl)amino)-N-(3-(pyridin-4-ylamino)phenyl)benzamide] gave a pIC50 against Akt3 [1] above 6.00.

As for `CS(=O)(=O)c1ccc2nccc(Nc3cccc(C(=O)Nc4cccc(Nc5ccncc5)c4)c3)c2c1` [Compound 3, 3-((6-(methylsulfonyl)quinolin-4-yl)amino)-N-(3-(pyridin-4-ylamino)phenyl)benzamide], the pIC50 against Akt3 [2] was above 5.30.

In turn, `[N-]=[N+]=Nc1ccc2nccc(Nc3cccc(C(=O)Nc4cccc(Nc5ccncc5)c4)c3)c2c1` [Compound 5, 3-((6-azidoquinolin-4-yl)amino)-N-(3-(pyridin-4-ylamino)phenyl)benzamide] showed a pIC50 on Akt3 [1] above 6.00.

The compound `O=C1c2ccc(Nc3ccncc3)cc2CN1c1cccc(Nc2ccncc2)c1` [Compound 110, 5-(pyridin-4-ylamino)-2-(3-(pyridin-4-ylamino)phenyl)isoindolin-1-one] had a pIC50 on Akt3 [1] above 6.30.

Compound `O=C(Nc1cccc(Nc2ccncc2)n1)c1cccc(Nc2ccncc2)c1` [Compound 108, 3-(pyridin-4-ylamino)-N-(6-(pyridin-4-ylamino)pyridin-2-yl)benzamide] gave a pIC50 against Akt3 [1] above 5.30.

As to `Cc1cc(Nc2cccc(C(=O)Nc3cccc(Nc4ccccc4)c3)c2)ccn1` [Compound 109, 3-((2-methylpyridin-4-yl)amino)-N-(3-(phenylamino)phenyl)benzamide], the pIC50 against Akt3 [1] was above 6.00.

With `N#Cc1ccc2nccc(Nc3cccc(-c4nc5ccc(Nc6ccncc6)nc5[nH]4)c3)c2c1` [Compound 106, 4-((3-(5-(pyridin-4-ylamino)-3H-imidazo[4,5-b]pyridin-2-yl)phenyl)amino)quinoline-6-carbonitrile], on Akt3 [2], the pIC50 was above 5.70.

`O=C(Nc1cccc(Oc2ccncc2)c1)c1cccc(Nc2ccnc3ccc(F)cc23)c1` [Compound 10, 3-((6-fluoroquinolin-4-yl)amino)-N-(3-(pyridin-4-yloxy)phenyl)benzamide] showed a pIC50 against Akt3 [1] above 6.30.

On Akt3 [1], `O=C(Nc1cc(Oc2ccccc2)ccn1)c1cccc(Nc2ccncc2)c1` [Compound 107, N-(4-phenoxypyridin-2-yl)-3-(pyridin-4-ylamino)benzamide] had a pIC50 above 5.30.

`N#Cc1nccc(Nc2cccc(NC(=O)c3cccc(Nc4ccnc5ccc(F)cc45)c3)c2)c1C(F)(F)F` [Compound 112, N-(3-(2-cyano-3-(trifluoromethyl)pyridin-4-ylamino)phenyl)-3-(6-fluoroquinolin-4-ylamino)benzamide] showed a negative logarithm of the IC50 (pIC50) at Akt3 [1] above 5.30.

For `Cc1nccc(Nc2ccc3c(c2)CN(c2cccc(Nc4ccncc4)c2)C3=O)c1Cl` [Compound 119, 5-(3-chloro-2-methylpyridin-4-ylamino)-2-(3-(pyridin-4-ylamino)phenyl)isoindolin-1-one], the pIC50 on Akt3 [1] was above 5.70.

For the compound `Cc1cc(Nc2cccc(C(=O)Nc3cccc(Nc4ccccc4)c3)c2)ccn1` [Compound 99, 3-((2-methylpyridin-4-yl)amino)-N-(3-(phenylamino)phenyl)benzamide], the pIC50 on Akt3 [1] is above 5.70.

Consider `N#Cc1cc(Nc2cccc(NC(=O)c3cccc(Nc4ccnc5ccc(F)cc45)c3)c2)ccn1` [Compound 113, N-(3-(2-cyanopyridin-4-ylamino)phenyl)-3-(6-fluoroquinolin-4-ylamino)benzamide], for which the pIC50 at Akt3 [1] is above 6.00.

In the case of `Cc1cc(Nc2ccnc(NC(=O)c3cccc(Nc4ccnc5ccc(N(C)C)cc45)c3)c2)ccn1` [Compound 61, 3-((6-(dimethylamino)quinolin-4-yl)amino)-N-(4-((2-methylpyridin-4-yl)amino)pyridin-2-yl)benzamide], the pIC50 against Akt3 [2] is above 6.00.

As to `O=C(Nc1cc(Nc2ccncc2)ccn1)c1cccc(Nc2cccc3ncccc23)c1` [Compound 126, N-(4-(pyridin-4-ylamino)pyridin-2-yl)-3-(quinolin-5-ylamino)benzamide], at Akt3 [1], the pIC50 is above 6.00.

On Akt3 [2], `Cc1cc(Oc2cccc(NC(=O)c3cncc(Nc4ccnc5ccc(N(C)C)cc45)c3)c2)ccn1` [Compound 65, 5-((6-(dimethylamino)quinolin-4-yl)amino)-N-(3-((2-methylpyridin-4-yl)oxy)phenyl)nicotinamide] showed a negative logarithm of the IC50 (pIC50) above 5.70.

Turning to `O=C(c1cccc(Nc2ccnc3ccc(F)cc23)c1)N1CCc2c(Nc3ccncc3)cccc21` [Compound 67, (3-((6-fluoroquinolin-4-yl)amino)phenyl)(4-(pyridin-4-ylamino)indolin-1-yl)methanone], on Akt3 [1], the pIC50 is above 5.70.

In the case of `Cc1cc(Nc2cccc(NC(=O)c3cccc(Nc4ccnc5ccc(N(C)C)cc45)c3)c2)ccn1` [Compound 59, 3-((6-(dimethylamino)quinolin-4-yl)amino)-N-(3-((2-methylpyridin-4-yl)amino)phenyl)benzamide], the pIC50 on Akt3 [2] was above 6.00.

At Akt3 [1], `O=C(Nc1cccc(Nc2ccncc2)n1)c1cccc(Nc2ccnc3ccc(F)cc23)c1` [Compound 21, 3-((6-fluoroquinolin-4-yl)amino)-N-(6-(pyridin-4-ylamino)pyridin-2-yl)benzamide] gave a pIC50 above 5.70.

Take `Cc1c(Nc2cccc(C(=O)Nc3cccc(Nc4ccccc4)c3)c2)ccnc1N` [Compound 129, 3-(2-amino-3-methylpyridin-4-ylamino)-N-(3-(phenylamino)phenyl)benzamide]: the pIC50 against Akt3 [1] was above 5.30.

`O=C(Nc1cc(Nc2ccncc2)ccn1)c1cccc(Nc2ccnc3ccccc23)c1` [Compound 38, N-(4-(pyridin-4-ylamino)pyridin-2-yl)-3-(quinolin-4-ylamino)benzamide] showed a pIC50 at Akt3 [1] above 6.00.

Compound `O=C(Nc1cccc(Nc2ccccc2)c1)c1cccc(Nc2ccncc2)c1` [Compound 97, N-(3-(phenylamino)phenyl)-3-(pyridin-4-ylamino)benzamide] had a pIC50 at Akt3 [1] above 5.30.

As to `O=C1c2ccc(Nc3ccncc3)cc2CN1c1cccc(NC2CCCC2)c1` [Compound 132, 2-(3-(cyclopentylamino)phenyl)-5-(pyridin-4-ylamino)isoindolin-1-one], the pIC50 against Akt3 [1] was above 6.00.

On to `CN(C)c1ccc2nccc(Nc3cccc(C(=O)Nc4cccc(Nc5ccncc5)c4)c3)c2c1` [Compound 31, 3-((6-(dimethylamino)quinolin-4-yl)amino)-N-(3-(pyridin-4-ylamino)phenyl)benzamide], for which the pIC50 on Akt3 [2] was above 6.00.

As to `Cc1cc(Nc2ccc3c(c2)CN(c2cccc(Nc4ccc(F)cc4)c2)C3=O)ccn1` [Compound 120, 2-(3-(4-fluorophenylamino)phenyl)-5-(2-methylpyridin-4-ylamino)isoindolin-1-one], the pIC50 against Akt3 [1] is above 7.00.

On Akt3 [1], `Cc1cc(Nc2cccc(C(=O)Nc3cccc(Nc4ccccc4)c3)c2)cc(N)n1` [Compound 131, 3-(2-amino-6-methylpyridin-4-ylamino)-N-(3-(phenylamino)phenyl)benzamide] gave a pIC50 above 5.00.

`N#Cc1ccc2nccc(Nc3cccc(C(=O)Nc4cc(Nc5ccncc5)ccn4)c3)c2c1` [Compound 26, 3-((6-cyanoquinolin-4-yl)amino)-N-(4-(pyridin-4-ylamino)pyridin-2-yl)benzamide] had a pIC50 against Akt3 [2] above 5.30.

As to `Cc1cc(Nc2cccc(C(=O)Nc3cc(Nc4ccncc4)ccn3)c2)cc(N)n1` [Compound 125, 3-(2-amino-6-methylpyridin-4-ylamino)-N-(4-(pyridin-4-ylamino)pyridin-2-yl)benzamide], the pIC50 against Akt3 [1] was above 5.30.

Compound `Cc1c(Nc2cccc(C(=O)Nc3cc(Nc4ccncc4)ccn3)c2)ccnc1N` [Compound 127, 3-(2-amino-3-methylpyridin-4-ylamino)-N-(4-(pyridin-4-ylamino)pyridin-2-yl)benzamide] showed a pIC50 at Akt3 [1] above 5.30.

Consider `Cc1cc(Nc2ccc3c(c2)CN(c2cccc(Nc4cccc(F)c4)c2)C3=O)ccn1` [Compound 118, 2-(3-(3-fluorophenylamino)phenyl)-5-(2-methylpyridin-4-ylamino)isoindolin-1-one], for which, on Akt3 [1], the pIC50 was above 6.30.

Turning to `N#Cc1ccc2nccc(Nc3cccc(C(=O)Nc4cccc(Nc5ccncc5)c4)c3)c2c1` [Compound 6, 3-((6-cyanoquinolin-4-yl)amino)-N-(3-(pyridin-4-ylamino)phenyl)benzamide], the pIC50 on Akt3 [2] was above 5.70.

Regarding `Nc1cc(Nc2cccc(C(=O)Nc3cccc(Nc4ccccc4)c3)c2)ccn1` [Compound 130, 3-(2-aminopyridin-4-ylamino)-N-(3-(phenylamino)phenyl)benzamide], at Akt3 [1], the pIC50 is above 6.00.
